Measurements from patent US7348427B2, “Antipathogenic benzamide compounds” (Genesoft Pharmaceuticals, Inc., priority 2001, dated 2008).
In brackets after ≈: the same amount, converted by molar mass.

Legend:
[1] = test system: Bacillus cereus (ATCC 11778); experiment: MIC, NCCLS broth microdilution assay; type: cell-based; conditions: A = B. cereus ATCC 11778
Method in brief: (§1)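 Activity is measured as MIC in microtiter broth microdilution under NCCLS M7-A4, M11-A4 and M27-T guidance, with the yeast tested by the method in Murray's Manual of Clinical Microbiology.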

[2] = test system: Staphylococcus aureus (ATCC 27660, a methicillin resistant strain (MRSA)); experiment: MIC, NCCLS broth microdilution assay; type: cell-based; conditions: F = S. aureus ATCC 27660
Method in brief: as §1

[3] = test system: Staphylococcus aureus (ATCC 13709, a methicillin sensitive strain (MSSA)); experiment: MIC, NCCLS broth microdilution assay; type: cell-based; conditions: E = S. aureus ATCC 13709
Method in brief: as §1

E. faecalis ATCC 29212 = experiment: MIC, NCCLS broth microdilution assay; type: cell-based, Enterococcus faecalis; conditions: C = E. faecalis ATCC 29212
Method in brief: (§2)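 MICs were determined by NCCLS broth microdilution following documents M7-A4 and M11-A4 (1997).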

S. pneumoniae ATCC 49619 = experiment: MIC, NCCLS broth microdilution assay; type: cell-based, Streptococcus pneumoniae; conditions: H = S. pneumoniae ATCC 49619
Method in brief: as §2

[4] = test system: Candida albicans (ATCC 38247); experiment: Antifungal MIC assay; type: cell-based; conditions: B = C. albicans ATCC 38247
Method in brief: as §1

[5] = Staphylococcus aureus, read-out: Minimum Inhibitory Concentration (MIC)

SMILES	Minimum Inhibitory Concentration (MIC) [1]	Minimum Inhibitory Concentration (MIC) [2]	Minimum Inhibitory Concentration (MIC) [3]	Minimum Inhibitory Concentration (MIC) (E. faecalis ATCC 29212)	Minimum Inhibitory Concentration (MIC) (S. pneumoniae ATCC 49619)	Minimum Inhibitory Concentration (MIC) [4]	MIC ([1]; Bacillus cereus, ATCC11778, read-out: Minimum Inhibitory Concentration (MIC))	MIC [2, 5]	MIC [3, 5]	MIC (E. faecalis ATCC 29212; Enterococcus faecalis, ATCC29212, read-out: Minimum Inhibitory Concentration (MIC))	MIC (S. pneumoniae ATCC 49619; Streptococcus pneumoniae, ATCC49619, read-out: Minimum Inhibitory Concentration (MIC))	MIC ([4]; Candida albicans, ATCC38247, read-out: Minimum Inhibitory Concentration (MIC))
Cn1cc(NC(=O)c2ccc(F)cc2F)cc1C(=O)Nc1cc(C(=O)Nc2cc(C(=O)NCCN3CCCCC3)n(CCN3CCCCC3)c2)n(C)c1 [Compound D-5]	+++ (+++ = MIC ≦ 4)	+++ (+++ = MIC ≦ 4)	+++ (+++ = MIC ≦ 4)	+++ (+++ = MIC ≦ 4)	+++ (+++ = MIC ≦ 4)	>32 µg/mL	–	–	–	–	–	–
CCSCCCn1cc(NC(=O)c2cc(NC(=O)c3ccc(Cl)cc3SCC)cn2C)cc1C(=O)Nc1cc(C(=O)Nc2cc(C(=O)NCCN3CCOCC3)n(C)c2)n(C)c1 [Compound C-20]	>32 µg/mL	>32 µg/mL	>32 µg/mL	>32 µg/mL	+++ (+++ = MIC ≦ 4)	>32 µg/mL	–	–	–	–	–	–
Cn1cc(NC(=O)c2cc(NC(=O)c3cc(NC(=O)c4ccc(F)cc4F)cn3CCCO)cn2C)cc1C(=O)NCCN1CCOCC1 [Compound C-6]	+ (+ = 12 ≦ MIC ≦ 32)	+ (+ = 12 ≦ MIC ≦ 32)	+ (+ = 12 ≦ MIC ≦ 32)	+ (+ = 12 ≦ MIC ≦ 32)	+++ (+++ = MIC ≦ 4)	>32 µg/mL	–	–	–	–	–	–
Cn1cc(NC(=O)c2cc(NC(=O)c3cc(NC(=O)c4ccc(Cl)cc4F)c[nH]3)cn2C)cc1C(=O)NCCN1CCSC1 [Compound A-29]	+++ (+++ = MIC ≦ 4)	++ (++ = 4 < MIC < 12)	+++ (+++ = MIC ≦ 4)	+ (+ = 12 ≦ MIC ≦ 32)	+++ (+++ = MIC ≦ 4)	>32 µg/mL	–	–	–	–	–	–
Cc1cc(NC(=O)c2cc(NC(=O)c3cc(NC(=O)c4ccc(Cl)cc4NCCN4CCCC4)cn3C)c[nH]2)sn1 [Compound C-23]	+++ (+++ = MIC ≦ 4)	+++ (+++ = MIC ≦ 4)	+++ (+++ = MIC ≦ 4)	++ (++ = 4 < MIC < 12)	+++ (+++ = MIC ≦ 4)	>32 µg/mL	–	–	–	–	–	–
Cn1cc(NC(=O)c2cc(NC(=O)c3cc(NC(=O)c4ccc(F)cc4F)cn3C)cn2C)cc1C(=O)NCCN1CCC(F)CC1 [Compound B-29]	+++ (+++ = MIC ≦ 4)	+++ (+++ = MIC ≦ 4)	+++ (+++ = MIC ≦ 4)	+++ (+++ = MIC ≦ 4)	+++ (+++ = MIC ≦ 4)	+ (+ = 12 ≦ MIC ≦ 32)	–	–	–	–	–	–
Cn1cc(NC(=O)c2cc(NC(=O)c3cc(NC(=O)c4ccc(Cl)cc4F)cn3CCCO)cn2C)cc1C(=O)NCCN1CCOCC1 [Compound C-16]	+++ (+++ = MIC ≦ 4)	+++ (+++ = MIC ≦ 4)	+++ (+++ = MIC ≦ 4)	+++ (+++ = MIC ≦ 4)	+++ (+++ = MIC ≦ 4)	>32 µg/mL	–	–	–	–	–	–
Cc1cc(NC(=O)c2cc(NC(=O)c3cc(NC(=O)c4ccc(F)cc4F)cn3C)cn2CCN2CCOCC2)sn1 [Compound D-1]	+++ (+++ = MIC ≦ 4)	+++ (+++ = MIC ≦ 4)	+++ (+++ = MIC ≦ 4)	+++ (+++ = MIC ≦ 4)	+++ (+++ = MIC ≦ 4)	>32 µg/mL	–	–	–	–	–	–
C[C@@H]1CCC[C@H](C)N1CCNC(=O)c1cc(NC(=O)c2cc(NC(=O)c3cc(NC(=O)c4ccc(F)cc4F)c[nH]3)cn2C)cn1C [Compound A-10]	+++ (+++ = MIC ≦ 4)	+++ (+++ = MIC ≦ 4)	+++ (+++ = MIC ≦ 4)	++ (++ = 4 < MIC < 12)	+++ (+++ = MIC ≦ 4)	++ (++ = 4 < MIC < 12)	–	–	–	–	–	–
Cc1cc(NC(=O)c2cc(NC(=O)c3cc(NC(=O)c4ccc(F)cc4F)cn3C)cn2CCC[N+](C)(C)C)sn1 [Compound D-6]	+ (+ = 12 ≦ MIC ≦ 32)	+ (+ = 12 ≦ MIC ≦ 32)	>32 µg/mL	+ (+ = 12 ≦ MIC ≦ 32)	+++ (+++ = MIC ≦ 4)	>32 µg/mL	–	–	–	–	–	–
C[C@@H]1CN(CCNC(=O)c2cc(NC(=O)c3cc(NC(=O)c4ccc(F)cc4F)cn3C)cn2C)C[C@H](C)O1 [Compound B-12]	+++ (+++ = MIC ≦ 4)	+++ (+++ = MIC ≦ 4)	++ (++ = 4 < MIC < 12)	+++ (+++ = MIC ≦ 4)	+++ (+++ = MIC ≦ 4)	>32 µg/mL	–	–	–	–	–	–
Cn1cc(NC(=O)c2cc(NC(=O)c3cc(NC(=O)c4ccc(OC(F)F)cc4)cn3C)cn2C)cc1C(=O)NCCN1CCSCC1 [Compound B-86]	+++ (+++ = MIC ≦ 4)	+++ (+++ = MIC ≦ 4)	+++ (+++ = MIC ≦ 4)	+++ (+++ = MIC ≦ 4)	+++ (+++ = MIC ≦ 4)	>32 µg/mL	–	–	–	–	–	–
Cn1cc(NC(=O)c2ccc(F)cc2F)cc1C(=O)Nc1cc(C(=O)Nc2cc(C(=O)OCCN3CCOCC3)n(C)c2)n(C)c1 [Compound B-10]	+++ (+++ = MIC ≦ 4)	+ (+ = 12 ≦ MIC ≦ 32)	+ (+ = 12 ≦ MIC ≦ 32)	+++ (+++ = MIC ≦ 4)	+++ (+++ = MIC ≦ 4)	>32 µg/mL	–	–	–	–	–	–
CN(C)CCCn1cc(NC(=O)c2cc(NC(=O)c3ccc(Cl)cc3F)cn2C)cc1C(=O)Nc1cc(C(=O)NCCN2CCOCC2)n(C)c1 [Compound D-25]	+++ (+++ = MIC ≦ 4)	+++ (+++ = MIC ≦ 4)	+++ (+++ = MIC ≦ 4)	+++ (+++ = MIC ≦ 4)	+++ (+++ = MIC ≦ 4)	+ (+ = 12 ≦ MIC ≦ 32)	–	–	–	–	–	–
CCN(CC)CCNC(=O)c1cc(NC(=O)c2cc(NC(=O)c3ccc(F)cc3F)cn2C)cn1C [Compound B-13]	+ (+ = 12 ≦ MIC ≦ 32)	+ (+ = 12 ≦ MIC ≦ 32)	++ (++ = 4 < MIC < 12)	++ (++ = 4 < MIC < 12)	+++ (+++ = MIC ≦ 4)	>32 µg/mL	–	–	–	–	–	–
Cn1cc(NC(=O)c2cc(NC(=O)c3cc(NC(=O)c4ccc(F)cc4F)c[nH]3)cn2C)cc1C(=O)NCCN1CCOCC1 [Compound A-1]	+++ (+++ = MIC ≦ 4)	++ (++ = 4 < MIC < 12)	+++ (+++ = MIC ≦ 4)	+++ (+++ = MIC ≦ 4)	+++ (+++ = MIC ≦ 4)	>32 µg/mL	–	–	–	–	–	–
Cn1cc(NC(=O)c2ccc(F)cc2F)cc1C(=O)Nc1cc(C(=O)Nc2c[nH]c(C(=O)NCCN3CCOCC3)c2)n(C)c1 [Compound C-1]	–	–	–	–	–	–	12 to 32 µg/mL (≈ 19.3 to 51.4 µM)	12 to 32 µg/mL (≈ 19.3 to 51.4 µM)	4 to 12 µg/mL (≈ 6.42 to 19.3 µM)	4 to 12 µg/mL (≈ 6.42 to 19.3 µM)	≤ 4 µg/mL	> 32 µg/mL
COCn1cc(NC(=O)c2ccc(Cl)cc2F)cc1C(=O)Nc1cc(C(=O)Nc2cc(C(=O)NCCN3CCOCC3)n(C)c2)n(C)c1 [Compound C-17]	+++ (+++ = MIC ≦ 4)	+++ (+++ = MIC ≦ 4)	+++ (+++ = MIC ≦ 4)	+++ (+++ = MIC ≦ 4)	+++ (+++ = MIC ≦ 4)	>32 µg/mL	–	–	–	–	–	–
Cn1cc(NC(=O)c2cc(NC(=O)c3ccc(F)cc3)cn2C)cc1C(=O)NCCN1CCSCC1 [Compound B-33]	+ (+ = 12 ≦ MIC ≦ 32)	+ (+ = 12 ≦ MIC ≦ 32)	++ (++ = 4 < MIC < 12)	++ (++ = 4 < MIC < 12)	+++ (+++ = MIC ≦ 4)	>32 µg/mL	–	–	–	–	–	–
